This is an account of results in patent US8435978B2, “Substituted sulfonamide compounds” (Gruenenthal GmbH, priority 2006, dated 2013).

One assay deals with T1, human B1R receptor (Homo sapiens, UniProt P46663).
T1 construct: host or cells: CHO K1 cells (Chinese hamster ovary), stably transfected
T1 sequence (P46663 1-353): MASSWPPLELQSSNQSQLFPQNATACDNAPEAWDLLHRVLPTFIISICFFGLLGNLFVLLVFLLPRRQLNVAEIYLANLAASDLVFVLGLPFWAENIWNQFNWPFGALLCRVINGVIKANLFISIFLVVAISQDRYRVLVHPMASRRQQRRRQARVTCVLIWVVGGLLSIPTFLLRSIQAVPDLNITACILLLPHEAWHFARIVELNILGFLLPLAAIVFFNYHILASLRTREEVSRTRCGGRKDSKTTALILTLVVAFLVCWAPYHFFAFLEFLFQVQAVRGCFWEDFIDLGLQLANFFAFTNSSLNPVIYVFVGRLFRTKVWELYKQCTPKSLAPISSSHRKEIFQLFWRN
As to the kind of experiment: Functional study on the bradykinin receptor 1 (B1R), FLIPR Ca2+ assay, hB1R cells. In kind it is cell-based. The note with it: agonist Lys-Des-Arg9-bradykinin 0.5 nM, % inhibition compared with the maximum achievable inhibition; for inhibition at 10 µM: read-out: B1R Antagonism, human [10 μM] % Inhibition. The gist of the method:
(§1)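 CHO K1 cells stably expressing human or rat B1R were loaded with Fluo-4 and read on a FLIPR (ex 488/em 540 nm, peak fluorescence). Test compounds at 10 μM were added first, then after 10 min agonist: Lys-Des-Arg9-bradykinin 0.5 nM for hB1R, Des-Arg9-bradykinin 100 nM for rB1R; % inhibition versus maximum inhibition.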

The target of a further assay is T2, B1R receptor of the rat (Rattus norvegicus, UniProt P97583).
T2 construct: host or cells: CHO K1 cells (Chinese hamster ovary), stably transfected
T2 sequence (P97583 1-337): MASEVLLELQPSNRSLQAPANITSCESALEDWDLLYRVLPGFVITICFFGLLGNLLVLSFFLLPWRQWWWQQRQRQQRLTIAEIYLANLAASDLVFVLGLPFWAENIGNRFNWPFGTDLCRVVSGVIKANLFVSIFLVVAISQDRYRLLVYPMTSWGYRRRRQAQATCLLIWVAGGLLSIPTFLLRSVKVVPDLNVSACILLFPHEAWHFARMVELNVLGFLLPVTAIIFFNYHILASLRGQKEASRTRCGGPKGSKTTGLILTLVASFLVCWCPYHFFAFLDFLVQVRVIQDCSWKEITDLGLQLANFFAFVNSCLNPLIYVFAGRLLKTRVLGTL
As to the kind of experiment: Functional study on the bradykinin receptor 1 (B1R), FLIPR Ca2+ assay, rB1R cells. In kind it is cell-based. The note with it: agonist Des-Arg9-bradykinin 100 nM, % inhibition compared with the maximum achievable inhibition; for inhibition at 10 µM: read-out: B1R Antagonism, rat [10 μM] % Inhibition. The gist of the method: as §1

[1] abbreviates: test substance 10 μM, hB1R CHO K1 cells.
Where [2] appears, read: test substance 10 μM, rB1R CHO K1 cells.

Where a name gives a salt, the structure may show the parent alone. Read-outs that look alike come from different tables or passages of the source.

Turning to `O=C(COCC1Cc2ccccc2CN1S(=O)(=O)c1ccc(Cl)cc1Cl)N1CCCN(Cc2ccccc2)CC1` (stereo not drawn) [Example 79, 1-(4-benzyl-[1,4]diazepan-1-yl)-2-[2-(2,4-dichloro-phenylsulfonyl)-1,2,3,4-tetra-hydro-isoquinolin-3-ylmethoxy]-ethanone], the inhibition (in general, the drop in the measured response relative to a control, in per cent) at 10 µM came to 45.5% on human B1R receptor (CHO-K1, test substance 10 μM) and 54.5% on B1R receptor of the rat (CHO-K1, test substance 10 μM).

For the molecule `COc1cc(C)c(S(=O)(=O)N2CCCCC2COCC(=O)NCc2ccccc2Oc2cnccn2)c(C)c1` (stereo not drawn) [Example 205, 2-((1-(4-methoxy-2,6-dimethylphenylsulfonyl)piperidin-2-yl)methoxy)-N-(2-(pyrazin-2-yloxy)benzyl)acetamide], the inhibition at 10 µM on human B1R receptor (CHO-K1, test substance 10 μM) worked out at 50%; at B1R receptor of the rat (CHO-K1, test substance 10 μM), 99.7%.

With `COc1cc(C)c(S(=O)(=O)N2CCCCC2COCC(=O)N2CCC(C(=O)N3CCN(C)CC3)CC2)c(C)c1` (stereo not drawn) [Example 146, 2-((1-(4-methoxy-2,6-dimethylphenylsulfonyl)piperidin-2-yl)methoxy)-1-(4-(4-methylpiperazin-1-carbonyl)piperidin-1-yl)ethanone], the inhibition at 10 µM turned out to be 97.3% at human B1R receptor (CHO-K1, test substance 10 μM) and 99.6% at B1R receptor of the rat (CHO-K1, test substance 10 μM).

Consider `COc1cc(C)c(S(=O)(=O)N2CCCCC2COCC(=O)N2CCN(c3ccc4c(N5CCCC5)ncnc4c3)CC2)c(C)c1` (stereo not drawn) [Example 168, 2-((1-(4-methoxy-2,6-dimethylphenylsulfonyl)piperidin-2-yl)methoxy)-1-(4-(4-(pyrrolidin-1-yl)quinazolin-7-yl)piperazin-1-yl)ethanone], for which the inhibition at 10 µM was 93.8% at human B1R receptor (CHO-K1, test substance 10 μM) and 98.4% at B1R receptor of the rat (CHO-K1, test substance 10 μM).

Consider `O=C(COCC1CCCCN1S(=O)(=O)c1c(Cl)cc(Cl)cc1Cl)N1CCC(c2cccnc2)C1` (stereo not drawn) [Example 389], for which the “B1R Antagonism, human [10 μM] % Inhibition” value at human B1R receptor (setting [1]) is given as 100.51%. Further, at B1R receptor of the rat (setting [2]), the “B1R Antagonism, rat [10 μM] % Inhibition” value is listed as 100.49%.

For `CN1CCC(N2CCN(C(=O)COCC3CCCCN3S(=O)(=O)c3c(Cl)cc(Br)cc3Cl)CC2)CC1` (stereo not drawn) [Example 160, 2-((1-(4-bromo-2,6-dichlorophenylsulfonyl)piperidin-2-yl)methoxy)-1-(4-(1-methylpiperidin-4-yl)piperazin-1-yl)ethanone dihydrochloride], the inhibition at 10 µM on human B1R receptor (CHO-K1, test substance 10 μM) stood at 99%; at B1R receptor of the rat (CHO-K1, test substance 10 μM), 99%.

Regarding “N-(4-(dimethylamino)butyl)-2-((1-(2,4,6-trichlorophenylsulfonyl)pyrrolidin-2-yl)methoxy)acetamide [Example 294]”, at human B1R receptor (setting [1]), the “B1R Antagonism, human [10 μM] % Inhibition” value was 105.91%. The “B1R Antagonism, rat [10 μM] % Inhibition” value on B1R receptor of the rat (setting [2]) is listed as 100%.

Turning to `COc1cc(C)c(S(=O)(=O)N2CCCC2COCC(=O)N2CCC(c3ccncc3)C2)c(C)c1` (stereo not drawn) [Example 273, 2-((1-(4-methoxy-2,6-dimethylphenylsulfonyl)pyrrolidin-2-yl)methoxy)-1-(3-(pyridin-4-yl)pyrrolidin-1-yl)ethanone], the inhibition at 10 µM on human B1R receptor (CHO-K1, test substance 10 μM) worked out at 96%; at B1R receptor of the rat (CHO-K1, test substance 10 μM), 84.9%.

Take `Cc1cc(C)c(S(=O)(=O)N2Cc3ccccc3CC2COCC(=O)NCc2cccc(N3CCN(C)CC3)c2)c(C)c1` (stereo not drawn) [Example 33, N-[3-(4-methyl-piperazin-1-yl)-benzyl]-2-[2-(2,4,6-trimethyl-phenylsulfonyl)-1,2,3,4-tetrahydro-isoquinolin-3-ylmethoxy]-acetamide]: the inhibition at 10 µM is 82.7% on human B1R receptor (CHO-K1, test substance 10 μM) and 47.7% on B1R receptor of the rat (CHO-K1, test substance 10 μM).

Take `Cc1ccc(N2CCN(C(=O)COCC3CCCCN3S(=O)(=O)c3c(Cl)cccc3Cl)CC2)cc1C` (stereo not drawn) [Example 403, 2-((1-(2,6-dichlorophenylsulfonyl)piperidin-2-yl)methoxy)-1-(4-(3,4-dimethylphenyl)piperazin-1-yl)ethanone]: the inhibition at 10 µM at human B1R receptor (CHO-K1, test substance 10 μM) is 101%; at B1R receptor of the rat (CHO-K1, test substance 10 μM) it was 100%.

Consider `COc1cc(C)c(S(=O)(=O)N2CCCCC2COCC(=O)N2CCN(CC3CCN(C)CC3)CC2)c(C)c1` (stereo not drawn) [Example 106, 2-((1-(4-methoxy-2,6-dimethylphenylsulfonyl)piperidin-2-yl)methoxy)-1-(4-((1-methylpiperidin-4-yl)methyl)piperazin-1-yl)ethanone dihydrochloride], for which the inhibition at 10 µM at human B1R receptor (CHO-K1, test substance 10 μM) amounted to 103%; on B1R receptor of the rat (CHO-K1, test substance 10 μM), 103%.

`COc1cc(C)c(S(=O)(=O)N2CCCCC2COCC(=O)N2CCc3cnccc3C2)c(C)c1` (stereo not drawn) [Example 96, 1-(3,4-dihydro-2,6-naphthyridin-2(1H)-yl)-2-((1-(4-methoxy-2,6-dimethylphenyl-sulfonyl)piperidin-2-yl)methoxy)ethanone hydrochloride]: the inhibition at 10 µM at human B1R receptor (setting [1]) is 105%; at B1R receptor of the rat (setting [2]), 91.3%.

As to `Cc1cccc(Cl)c1S(=O)(=O)N1CCC[C@H]1COCC(=O)N1CCC(CCN2CCCC2)CC1` [Example 161, (S)-2-((1-(2-chloro-6-methylphenylsulfonyl)pyrrolidin-2-yl)methoxy)-1-(4-(2-(pyrrolidin-1-yl)ethyl)piperidin-1-yl)ethanone hydrochloride], the inhibition at 10 µM at human B1R receptor (CHO-K1, test substance 10 μM) was found to be 98.5%; on B1R receptor of the rat (CHO-K1, test substance 10 μM), 99.2%.

Turning to `COc1cc(C)c(S(=O)(=O)N2CCCCC2COCC(=O)N2CCC(N3CCN(C)CC3)CC2)c(C)c1` (stereo not drawn) [Example 112, 2-((1-(4-methoxy-2,6-dimethylphenylsulfonyl)piperidin-2-yl)methoxy)-1-(4-(4-methylpiperazin-1-yl)piperidin-1-yl)ethanone hydrochloride], the inhibition at 10 µM on human B1R receptor (CHO-K1, test substance 10 μM) worked out at 102%; on B1R receptor of the rat (CHO-K1, test substance 10 μM), 102%.

`COc1cc(C)c(S(=O)(=O)N2CCCCC2COCC(=O)NCc2ccc(CN3CCN(C)CC3)cc2)c(C)c1` (stereo not drawn) [Example 7, 2-[1-(4-methoxy-2,6-dimethyl-phenylsulfonyl)-piperidin-2-ylmethoxy]-N-[4-(4-methyl-piperazin-1-ylmethyl)-benzyl]-acetamide]: the inhibition at 10 µM at human B1R receptor (CHO-K1, test substance 10 μM) amounted to 102%; on B1R receptor of the rat (CHO-K1, test substance 10 μM) it was 99.3%.

Regarding `COc1cc(C)c(S(=O)(=O)N2Cc3ccccc3CC2COCC(=O)N2CCC(CCN3CCCCC3)CC2)c(C)c1C` (stereo not drawn) [Example 276, 2-((2-(4-methoxy-2,3,6-trimethylphenylsulfonyl)-1,2,3,4-tetrahydroisoquinolin-3-yl)methoxy)-1-(4-(2-(piperidin-1-yl)ethyl)piperidin-1-yl)ethanone], the inhibition at 10 µM amounted to 98.9% on human B1R receptor (CHO-K1, test substance 10 μM) and 94.2% at B1R receptor of the rat (CHO-K1, test substance 10 μM).

Regarding `CN(C)c1ccc(CNC(=O)COCC2CCCCN2S(=O)(=O)c2c(Cl)cc(Cl)cc2Cl)cc1` (stereo not drawn) [Example 578, N-(4-(dimethylamino)benzyl)-2-((1-(2,4,6-trichlorophenylsulfonyl)piperidin-2-yl)methoxy)acetamide], the inhibition at 10 µM at human B1R receptor (CHO-K1, test substance 10 μM) came to 8.96%; at B1R receptor of the rat (CHO-K1, test substance 10 μM), 87.1%.

Regarding `COc1cc(C)c(S(=O)(=O)N2CCCCC2COCC(=O)Nc2cccc3cnccc23)c(C)c1` (stereo not drawn) [Example 258], on human B1R receptor (setting [1]), the “B1R Antagonism, human [10 μM] % Inhibition” value was found to be 75.25%. At B1R receptor of the rat (setting [2]), the “B1R Antagonism, rat [10 μM] % Inhibition” value is recorded as 99.75%.

Take `O=C(COCC1CCCN1S(=O)(=O)c1c(Cl)cc(Cl)cc1Cl)N1CCC(CCN2CCCCC2)CC1` (stereo not drawn) [Example 331, 1-(4-(2-(piperidin-1-yl)ethyl)piperidin-1-yl)-2-((1-(2,4,6-trichlorophenylsulfonyl)pyrrolidin-2-yl)methoxy)ethanone]: the inhibition at 10 µM at human B1R receptor (CHO-K1, test substance 10 μM) was found to be 106%; on B1R receptor of the rat (CHO-K1, test substance 10 μM), 101%.

Turning to `O=C(COCC1CCCN1S(=O)(=O)c1ccc(Cl)c(Cl)c1)N1CCC(CCN2CCCCC2)CC1` (stereo not drawn) [Example 36, 2-((1-(3,4-dichlorophenylsulfonyl)pyrrolidin-2-yl)methoxy)-1-(4-(2-(piperidin-1-yl)-ethyl)piperidin-1-yl)ethanone], the inhibition at 10 µM on human B1R receptor (CHO-K1, test substance 10 μM) is 79.4%; at B1R receptor of the rat (CHO-K1, test substance 10 μM) it was 45.7%.

`O=C(COCC1CCCCN1S(=O)(=O)c1c(Cl)cccc1Cl)N1CCN(c2cccc(C(F)(F)F)c2)CC1` (stereo not drawn) [Example 481, 2-((1-(2,6-dichlorophenylsulfonyl)piperidin-2-yl)methoxy)-1-(4-(3-(trifluoromethyl)phenyl)piperazin-1-yl)ethanone]: the inhibition at 10 µM on human B1R receptor (CHO-K1, test substance 10 μM) was 72.6%; at B1R receptor of the rat (CHO-K1, test substance 10 μM), 104%.
